System: SH-SY5Y tauRD-DsRed cells
Assay: Neurite outgrowth in SH-SY5Y tauRD-DsRed cells (TUBB3 staining)
Type: cell-based, human
Conditions: 10 μM, pre-treated 8 hours, doxycycline 7 days; untreated = 100%
Description: We used SH-SY5Y human cells expressing a DsRed-tagged proaggregation mutant (ΔK280) of the C-terminal repeat domain of tau (tauRD-Gln^244-Glu^372 of the longest tau^441 isoform). The recombinant tauRD-DsRed construct was under the control of a tetracycline-regulated, hybrid human cytomegalovirus (CMV)/TetO2 promoter that can be induced by adding doxycycline. The cell lines were grown in medium containing blasticidin (5 μg/mL) and hygromycin (100 μg/mL).
SH-SY5Y tauRD-DsRed cells were seeded in 6-well plates (1×10^5/well) in a medium containing all-trans retinoic acid (10 μM, Sigma). After 48 hours of incubation, cells were pre-treated with 10 μM Congo red and 10 μM compound (I) for 8 hours; after which, tauRD-DsRed expression was induced with 1μg/mL doxycycline for 7 days. The cells were then fixed in 4% paraformaldehyde, permeabilized with 0.1% Triton X-100, blocked in 3% BSA, and then stained with the primary antibody anti-TUBB3 (against neuronal Class III β-tubulin) (1:1000; Covance) and with a secondary anti-rabbit Alexa Fluor® 555 antibody (1:500; Molecular Probes). Nuclei were counterstained with 4′,6-diamidino-2-phenylindole (DAPI). The total outgrowth in the untreated, Congo red-treated, and compound (I)-treated cells was assessed using MetaXpress image acquisition and analysis software.

In the case of `Nc1c(/N=N/c2ccc(-c3ccc(/N=N/c4cc(S(=O)(=O)O)c5ccccc5c4N)cc3)cc2)cc(S(=O)(=O)O)c2ccccc12` [Congo red, reference compound], the “neurite growth relative to untreated cells” value is reported as 110%.
